smiles,measurement,setting,value
O=C(CN1C(=O)S/C(=C\c2ccc(Cl)cc2)C1=O)N1CCN(CC(O)(Cn2cncn2)c2cc(F)ccc2F)CC1 (stereo not given),solubility (mole fraction),"in ethanol, 293.15 K",0.000161
same,solubility (mole fraction),"in ethanol, 298.15 K",0.0002
same,solubility (mole fraction),"in ethanol, 303.15 K",0.000254
same,solubility (mole fraction),"in ethanol, 308.15 K",0.000312
same,solubility (mole fraction),"in ethanol, 313.15 K",0.000377
same,solubility (mole fraction),"in n-hexane, 293.15 K",2.34e-06
same,solubility (mole fraction),"in n-hexane, 298.15 K",3.14e-06
same,solubility (mole fraction),"in n-hexane, 303.15 K",4.1e-06
same,solubility (mole fraction),"in n-hexane, 308.15 K",5.16e-06
same,solubility (mole fraction),"in n-hexane, 313.15 K",6.28e-06
same,solubility (mole fraction),"in n-octanol, 293.15 K",0.00047
same,solubility (mole fraction),"in n-octanol, 298.15 K",0.000578
same,solubility (mole fraction),"in n-octanol, 303.15 K",0.000723
same,solubility (mole fraction),"in n-octanol, 308.15 K",0.000882
same,solubility (mole fraction),"in n-octanol, 313.15 K",0.00115
